# Data published in ChEMBL document CHEMBL1201862, “PubChem BioAssay data set” (2004).
# Calls of active or inactive are those of the source.
# What was measured:
# Prothrombin = Prothrombin (Bos taurus, UniProt P00735); experiment: thrombin protease inhibitors – biochemical, fluorescence polarization, uHTS hits, dose response (AID 602369); format: functional
# [1] = target: 72 kDa type IV collagenase (Homo sapiens, UniProt P08253); experiment: Dose Response validation of uHTS RPN11 inhibitor hits using a MMP-2 Fluorescence assay.; format: functional
# [2] = HEK-293T cell viability reduction – luminescence, B-cell screen hits, cytotoxicity control for BCR NF-kB inhibitor project, dose response (AID 489021); format: functional, cell-based;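 further: HEK-293T cells carrying an NF-kB luciferase reporter; cells exposed to compound for about 14 hours before viability readout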
# [3] = target: 26S proteasome non-ATPase regulatory subunit 14 (Homo sapiens, UniProt O00487); experiment: inhibition of proteasome subunit RPN11 – biochemical, fluorescence polarization, uHTS hits, confirmation (AID 602368); format: functional
# [4] = target: T1, Sentrin-specific protease 6 (Homo sapiens, UniProt Q9GZR1); format: functional;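 further: Luminescence-based dose-response confirmatory assay of SENP6 inhibition, following up an ultra-high-throughput screen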
# T1 sequence (Q9GZR1 whole entry): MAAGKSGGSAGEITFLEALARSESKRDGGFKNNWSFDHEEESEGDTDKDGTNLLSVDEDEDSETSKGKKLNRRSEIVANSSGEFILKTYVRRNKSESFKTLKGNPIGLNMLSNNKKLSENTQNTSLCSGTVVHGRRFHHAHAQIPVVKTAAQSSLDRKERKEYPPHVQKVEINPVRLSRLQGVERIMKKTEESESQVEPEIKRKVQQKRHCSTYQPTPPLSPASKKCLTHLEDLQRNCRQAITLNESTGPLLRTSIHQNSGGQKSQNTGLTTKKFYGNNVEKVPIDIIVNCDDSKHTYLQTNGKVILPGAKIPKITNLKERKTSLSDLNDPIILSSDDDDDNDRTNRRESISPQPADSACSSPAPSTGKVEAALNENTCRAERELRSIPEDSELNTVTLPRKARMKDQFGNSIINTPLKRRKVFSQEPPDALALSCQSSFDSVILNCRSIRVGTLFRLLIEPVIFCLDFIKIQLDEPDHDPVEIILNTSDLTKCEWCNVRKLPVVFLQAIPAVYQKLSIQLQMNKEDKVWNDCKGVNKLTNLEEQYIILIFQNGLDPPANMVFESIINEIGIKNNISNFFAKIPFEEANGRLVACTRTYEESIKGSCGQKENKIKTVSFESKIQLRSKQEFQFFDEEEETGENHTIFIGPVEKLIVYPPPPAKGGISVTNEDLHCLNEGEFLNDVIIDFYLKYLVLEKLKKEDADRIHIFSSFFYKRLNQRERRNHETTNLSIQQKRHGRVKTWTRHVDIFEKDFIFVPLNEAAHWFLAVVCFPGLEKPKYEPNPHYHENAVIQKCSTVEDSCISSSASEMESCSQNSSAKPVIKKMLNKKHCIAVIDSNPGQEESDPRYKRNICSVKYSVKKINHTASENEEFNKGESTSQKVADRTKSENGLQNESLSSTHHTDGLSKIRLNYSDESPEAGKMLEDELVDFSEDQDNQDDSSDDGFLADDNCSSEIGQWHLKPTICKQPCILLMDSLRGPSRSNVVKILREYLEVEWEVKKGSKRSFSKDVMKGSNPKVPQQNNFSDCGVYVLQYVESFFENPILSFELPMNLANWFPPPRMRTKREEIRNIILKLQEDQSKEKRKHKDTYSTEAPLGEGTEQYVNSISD
# [5] = target: T2, Sentrin-specific protease 7 (Homo sapiens, UniProt Q9BQF6); format: functional;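 further: Luminescence-based dose-response confirmation of ultra-high-throughput screening hits, measuring inhibition of SENP7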
# T2 sequence (Q9BQF6 whole entry): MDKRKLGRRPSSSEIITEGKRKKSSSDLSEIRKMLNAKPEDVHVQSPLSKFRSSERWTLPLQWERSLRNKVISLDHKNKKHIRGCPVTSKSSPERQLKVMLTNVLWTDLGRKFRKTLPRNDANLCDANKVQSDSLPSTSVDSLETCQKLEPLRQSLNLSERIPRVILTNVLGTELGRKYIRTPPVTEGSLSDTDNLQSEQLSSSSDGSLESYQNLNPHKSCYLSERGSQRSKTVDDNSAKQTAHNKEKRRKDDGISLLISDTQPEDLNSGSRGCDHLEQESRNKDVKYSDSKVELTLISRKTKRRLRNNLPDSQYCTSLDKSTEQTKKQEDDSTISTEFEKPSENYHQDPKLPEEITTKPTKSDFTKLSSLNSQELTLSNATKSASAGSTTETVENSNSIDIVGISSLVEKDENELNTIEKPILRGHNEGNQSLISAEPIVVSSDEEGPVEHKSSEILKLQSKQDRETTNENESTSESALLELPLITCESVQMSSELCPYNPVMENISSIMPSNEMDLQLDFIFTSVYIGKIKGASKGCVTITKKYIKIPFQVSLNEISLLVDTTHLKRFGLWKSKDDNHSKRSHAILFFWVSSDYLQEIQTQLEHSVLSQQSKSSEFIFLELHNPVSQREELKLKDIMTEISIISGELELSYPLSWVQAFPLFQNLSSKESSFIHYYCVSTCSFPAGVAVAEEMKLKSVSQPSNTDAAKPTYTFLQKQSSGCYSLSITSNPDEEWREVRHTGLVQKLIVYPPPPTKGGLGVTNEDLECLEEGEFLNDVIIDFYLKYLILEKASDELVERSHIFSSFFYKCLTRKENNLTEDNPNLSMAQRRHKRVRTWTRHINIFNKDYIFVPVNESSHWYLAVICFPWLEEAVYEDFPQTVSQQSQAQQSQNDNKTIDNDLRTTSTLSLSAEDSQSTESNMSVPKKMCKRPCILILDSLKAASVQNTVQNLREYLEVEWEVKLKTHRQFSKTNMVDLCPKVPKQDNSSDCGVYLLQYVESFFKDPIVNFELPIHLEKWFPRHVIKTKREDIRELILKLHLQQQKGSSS
# [6] = target: T3, Endoribonuclease toxin MazF (Escherichia coli K-12, UniProt P0AE70); experiment: substrate-only fluorescence increase artefacts – biochemical, single-stranded RNase substrate, counter-screen for MazEF activator project, dose response (AID 588502); format: functional
# T3 sequence (P0AE70 whole entry): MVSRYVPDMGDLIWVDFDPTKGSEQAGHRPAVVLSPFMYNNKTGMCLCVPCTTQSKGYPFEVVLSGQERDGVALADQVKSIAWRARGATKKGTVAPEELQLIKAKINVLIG
# Caspase-3 = target: T4, Caspase-3 (Homo sapiens, UniProt P42574); format: functional;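 further: Dose-response selectivity test against caspase-3 for candidate inhibitors of sentrin-specific proteases (SENPs)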
# T4 sequence (P42574 whole entry): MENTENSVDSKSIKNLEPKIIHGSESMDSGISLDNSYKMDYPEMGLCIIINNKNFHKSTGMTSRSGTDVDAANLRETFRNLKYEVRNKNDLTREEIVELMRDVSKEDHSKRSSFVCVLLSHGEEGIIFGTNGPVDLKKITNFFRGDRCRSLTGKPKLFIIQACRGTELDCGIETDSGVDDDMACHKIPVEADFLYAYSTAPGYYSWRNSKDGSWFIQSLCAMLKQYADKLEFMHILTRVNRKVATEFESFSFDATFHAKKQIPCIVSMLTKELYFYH
# Protein skinhead-1 = target: T5, Protein skinhead-1 (Caenorhabditis elegans, UniProt P34707); format: functional
# T5 sequence (P34707 whole entry): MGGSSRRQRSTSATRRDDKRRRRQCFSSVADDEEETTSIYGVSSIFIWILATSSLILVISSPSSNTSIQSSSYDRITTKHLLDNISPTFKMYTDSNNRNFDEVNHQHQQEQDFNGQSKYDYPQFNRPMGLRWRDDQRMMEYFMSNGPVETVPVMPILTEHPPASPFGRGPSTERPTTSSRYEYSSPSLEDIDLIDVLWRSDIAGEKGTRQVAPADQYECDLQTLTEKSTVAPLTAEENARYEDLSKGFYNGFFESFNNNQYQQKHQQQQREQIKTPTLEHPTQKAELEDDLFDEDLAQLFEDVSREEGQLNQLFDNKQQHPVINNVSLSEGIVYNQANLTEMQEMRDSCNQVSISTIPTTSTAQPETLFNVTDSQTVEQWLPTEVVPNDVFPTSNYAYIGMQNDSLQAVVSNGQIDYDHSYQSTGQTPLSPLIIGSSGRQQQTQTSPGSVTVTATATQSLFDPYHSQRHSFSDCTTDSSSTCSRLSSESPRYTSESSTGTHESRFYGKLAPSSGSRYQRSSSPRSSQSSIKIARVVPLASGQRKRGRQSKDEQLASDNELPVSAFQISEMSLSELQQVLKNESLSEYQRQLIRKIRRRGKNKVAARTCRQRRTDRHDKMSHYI
# [7] = target: T6, Sentrin-specific protease 8 (Homo sapiens, UniProt Q96LD8); format: functional;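 further: luminescence read-out of SENP8 inhibition, dose-response confirmation following an ultra-high-throughput screen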
# T6 sequence (Q96LD8 whole entry): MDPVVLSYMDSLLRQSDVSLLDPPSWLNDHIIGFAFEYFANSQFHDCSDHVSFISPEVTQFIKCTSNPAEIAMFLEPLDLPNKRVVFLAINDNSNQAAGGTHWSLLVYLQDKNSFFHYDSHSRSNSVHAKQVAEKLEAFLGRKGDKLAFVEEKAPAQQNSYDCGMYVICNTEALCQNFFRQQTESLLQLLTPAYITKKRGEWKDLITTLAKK
# [8] = target: T3, Endoribonuclease toxin MazF; experiment: activation of MazEF endoribonuclease cleavage – biochemical, fluorescence, single-stranded RNA substrate, uHTS hits, dose response (AID 588481); format: functional
# [9] = target: T7, RNA-binding protein pos-1 (Caenorhabditis elegans, UniProt G5EF15); experiment: disruptors of C. elegans POS-1 RNA interaction – biochemical, fluorescence polarization, dose response (AID 1964);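 further: purified POS-1 fused to maltose binding protein made in E. coli; potency of compounds blocking POS-1 binding to fluorescent RNA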
# T7 sequence (G5EF15 whole entry): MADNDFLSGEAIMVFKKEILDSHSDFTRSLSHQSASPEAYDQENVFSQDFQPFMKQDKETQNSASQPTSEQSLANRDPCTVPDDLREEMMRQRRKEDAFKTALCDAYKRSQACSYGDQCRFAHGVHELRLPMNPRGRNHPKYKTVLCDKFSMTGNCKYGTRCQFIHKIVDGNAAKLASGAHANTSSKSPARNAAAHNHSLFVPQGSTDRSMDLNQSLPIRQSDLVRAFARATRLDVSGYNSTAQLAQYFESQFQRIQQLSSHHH
# [10] = target: T8, Zinc finger protein mex-5 (Caenorhabditis elegans, UniProt Q9XUB2); experiment: potency of MEX-5 RNA-binding blockers – biochemical, C. elegans, fluorescence polarization, dose response (AID 1960)
# T8 sequence (Q9XUB2 whole entry): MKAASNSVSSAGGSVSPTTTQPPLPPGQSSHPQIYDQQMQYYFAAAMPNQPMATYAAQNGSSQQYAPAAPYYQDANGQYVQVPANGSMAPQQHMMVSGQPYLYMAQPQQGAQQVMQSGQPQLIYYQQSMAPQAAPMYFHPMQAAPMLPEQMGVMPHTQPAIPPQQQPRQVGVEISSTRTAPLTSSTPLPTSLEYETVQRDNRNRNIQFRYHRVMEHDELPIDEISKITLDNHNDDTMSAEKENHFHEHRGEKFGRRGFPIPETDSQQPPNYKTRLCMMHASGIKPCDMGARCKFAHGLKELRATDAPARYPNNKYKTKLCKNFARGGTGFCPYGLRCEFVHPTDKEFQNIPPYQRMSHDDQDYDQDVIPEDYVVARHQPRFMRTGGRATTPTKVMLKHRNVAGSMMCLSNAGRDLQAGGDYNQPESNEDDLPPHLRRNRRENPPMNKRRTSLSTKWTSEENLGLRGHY
# [11] = target: T9, Hepatocyte nuclear factor 4-alpha (Homo sapiens, UniProt P41235); format: functional, cell-based;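 further: biochemical luminescence-based dose-response counterscreen measuring inhibition of HNF4 dimerization, run alongside a screen for blockers of ABHD5–perilipin-5 interaction; split luciferase complementation of HNF4 fusion proteins in cell lysate measuring dimerization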
# T9 sequence (P41235 whole entry): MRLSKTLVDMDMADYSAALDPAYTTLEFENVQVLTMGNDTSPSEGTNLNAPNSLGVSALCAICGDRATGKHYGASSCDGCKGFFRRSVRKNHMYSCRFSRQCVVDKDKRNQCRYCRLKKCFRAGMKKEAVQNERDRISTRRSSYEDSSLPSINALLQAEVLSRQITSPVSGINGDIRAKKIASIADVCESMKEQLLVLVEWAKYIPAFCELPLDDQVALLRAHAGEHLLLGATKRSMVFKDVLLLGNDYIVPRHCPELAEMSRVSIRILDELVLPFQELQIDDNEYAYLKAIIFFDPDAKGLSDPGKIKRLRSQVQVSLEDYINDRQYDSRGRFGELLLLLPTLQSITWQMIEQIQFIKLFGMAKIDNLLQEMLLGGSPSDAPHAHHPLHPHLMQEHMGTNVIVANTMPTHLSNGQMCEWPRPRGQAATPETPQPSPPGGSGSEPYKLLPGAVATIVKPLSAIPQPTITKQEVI
# Genome polyprotein = Genome polyprotein (dengue virus type 2, UniProt P29990); experiment: flavivirus cap methylation enzyme inhibition – biochemical, confirmation dose response, primary screen (AID 588689); format: functional
# Chain of Genome polyprotein (P29990 2492-3391 limits assumed): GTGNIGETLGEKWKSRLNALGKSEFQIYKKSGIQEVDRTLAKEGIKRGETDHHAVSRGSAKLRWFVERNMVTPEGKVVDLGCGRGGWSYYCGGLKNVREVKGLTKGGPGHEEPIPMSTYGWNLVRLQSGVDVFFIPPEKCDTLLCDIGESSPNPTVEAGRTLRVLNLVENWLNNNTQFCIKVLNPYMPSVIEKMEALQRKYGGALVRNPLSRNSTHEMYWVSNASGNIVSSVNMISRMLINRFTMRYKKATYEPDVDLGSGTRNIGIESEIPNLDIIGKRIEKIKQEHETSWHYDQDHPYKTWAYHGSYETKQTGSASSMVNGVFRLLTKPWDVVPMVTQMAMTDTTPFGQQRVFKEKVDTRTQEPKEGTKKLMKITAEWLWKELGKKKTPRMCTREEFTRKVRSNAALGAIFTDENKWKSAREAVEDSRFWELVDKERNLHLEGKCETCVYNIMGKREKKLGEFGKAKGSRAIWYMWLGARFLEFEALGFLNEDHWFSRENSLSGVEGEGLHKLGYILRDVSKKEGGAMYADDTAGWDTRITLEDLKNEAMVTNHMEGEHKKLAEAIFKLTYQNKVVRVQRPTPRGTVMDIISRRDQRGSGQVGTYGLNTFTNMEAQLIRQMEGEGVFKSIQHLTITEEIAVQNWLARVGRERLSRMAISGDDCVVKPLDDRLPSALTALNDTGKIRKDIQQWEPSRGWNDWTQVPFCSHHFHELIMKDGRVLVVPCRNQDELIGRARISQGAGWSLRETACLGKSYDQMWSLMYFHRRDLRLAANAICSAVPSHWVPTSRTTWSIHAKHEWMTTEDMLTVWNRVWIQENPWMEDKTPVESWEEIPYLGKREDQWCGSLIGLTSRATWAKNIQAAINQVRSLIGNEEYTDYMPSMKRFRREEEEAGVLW
# Chain of 26S proteasome non-ATPase regulatory subunit 14 (O00487 whole entry): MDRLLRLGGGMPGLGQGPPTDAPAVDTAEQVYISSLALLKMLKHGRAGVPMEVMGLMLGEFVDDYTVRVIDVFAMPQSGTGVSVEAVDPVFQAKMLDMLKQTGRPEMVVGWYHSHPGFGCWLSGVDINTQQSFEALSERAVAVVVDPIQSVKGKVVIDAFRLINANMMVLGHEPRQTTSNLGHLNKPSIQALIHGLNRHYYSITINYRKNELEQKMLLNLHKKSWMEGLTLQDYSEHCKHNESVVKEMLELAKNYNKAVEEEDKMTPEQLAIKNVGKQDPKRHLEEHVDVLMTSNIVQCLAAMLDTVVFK
# Chain of 72 kDa type IV collagenase (P08253 whole entry): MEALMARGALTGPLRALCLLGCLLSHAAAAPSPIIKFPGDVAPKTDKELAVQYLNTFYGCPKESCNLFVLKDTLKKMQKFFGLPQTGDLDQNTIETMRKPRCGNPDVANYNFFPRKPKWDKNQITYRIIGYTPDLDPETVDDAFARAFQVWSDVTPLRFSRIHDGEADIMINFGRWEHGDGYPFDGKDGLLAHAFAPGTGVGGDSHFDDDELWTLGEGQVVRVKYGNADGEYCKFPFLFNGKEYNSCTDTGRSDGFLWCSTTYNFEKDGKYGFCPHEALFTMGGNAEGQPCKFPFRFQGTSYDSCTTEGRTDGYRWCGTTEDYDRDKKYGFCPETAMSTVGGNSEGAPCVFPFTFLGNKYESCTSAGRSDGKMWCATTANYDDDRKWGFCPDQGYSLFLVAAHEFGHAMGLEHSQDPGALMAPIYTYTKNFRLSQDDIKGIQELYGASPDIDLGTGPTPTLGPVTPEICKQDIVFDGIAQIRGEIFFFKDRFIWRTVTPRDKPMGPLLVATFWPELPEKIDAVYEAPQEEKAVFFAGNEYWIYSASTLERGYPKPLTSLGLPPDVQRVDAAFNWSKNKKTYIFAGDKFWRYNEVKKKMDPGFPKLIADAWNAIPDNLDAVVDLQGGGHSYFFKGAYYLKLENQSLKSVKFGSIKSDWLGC
smiles,measurement,setting,value
COc1ccc(/C=C2/SC(=S)N(CCCC(=O)Nc3ccc(O)cc3)C2=O)cc1OC,IC50,Prothrombin,31.8 µM (active)
same,IC50,[1],> 100 µM (inactive)
same,IC50,[2],> 80 µM (inactive)
same,IC50,[3],25.2 µM (active)
CN(C)c1ccc(C(=O)/C=C/c2ccccc2)cc1,IC50,[4],11.6 µM (active)
same,IC50,[5],5.32 µM (active)
same,EC50,[6],> 99 µM (inactive)
same,IC50,Caspase-3,8.33 µM (active)
same,IC50,Protein skinhead-1,> 100 µM (inactive)
same,IC50,[7],14.3 µM (active)
same,EC50,[8],> 99 µM (inactive)
CCOc1ccc(N2C(=O)/C(=C/Nc3ccnn3Cc3ccncc3)c3ccccc3C2=O)cc1,IC50,Prothrombin,24.6 µM (active)
same,EC50,[9],> 300 µM (not active)
same,EC50,[10],> 300 µM (not active)
same,IC50,[1],> 100 µM (inactive)
same,IC50,[3],23.9 µM (active)
COc1cc(/C=C2/SC(=S)N(CC(=O)Nc3nc4ccccc4s3)C2=O)cc(OC)c1OC,IC50,Prothrombin,23.5 µM (active)
same,IC50,[1],> 100 µM (inactive)
same,IC50,[3],20.2 µM (active)
CC(=O)OCC1=C(C(=O)O)N2C(=O)C(NC(=O)CCn3nc(C(F)(F)F)c(Br)c3C3CC3)C2SC1 (stereo not given),IC50,[11],17.7 µM (inactive)
same,IC50,Genome polyprotein,54.8 µM (active)
CCCCn1c(/N=C/c2ccc(N(C)C)cc2)nc2ccccc21,IC50,Prothrombin,7.12 µM (active)
same,IC50,[1],> 100 µM (inactive)
same,IC50,[3],5.14 µM (active)
O=C(NCc1ccccc1)C(c1ccc(-c2ccccc2)cc1)n1c(=O)c(-c2ccco2)nc2ccccc21 (stereo not given),IC50,[11],3.34 µM (active)
